The supplement of paper PMC3493320

System: NCI-H295R
Assay: IC50 (antiproliferative, ATP content)
Conditions: 48 h
Procedure, shortened: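 Cell viability of adrenocortical carcinoma cells was assessed as ATP by CellTiter-Glo luminescence. Cells at 1500 per well in 1536-well plates, in serum-free DMEM with ITS, received compounds by pin transfer at 8 final concentrations (0.6 nM–46 µM) after overnight culture and were then held 48 h at 37 °C, 5% CO2. IC50 was calculated by logistic fitting against vehicle and positive-control wells, compounds with no concentration response being recorded as above the top dose.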

IC50 [µM]	SMILES
> 46	COC1=C(OC)C(=O)C(C/C=C(\C)CC/C=C(\C)CC/C=C(\C)CC/C=C(\C)CC/C=C(\C)CC/C=C(\C)CC/C=C(\C)CC/C=C(\C)CC/C=C(\C)CCC=C(C)C)=C(C)C1=O
> 46	CCCCCCCC(=O)O
> 46	C[Se]CC[C@H](N)C(=O)O
> 46	Cl.Cn1c(NCCN(CCO)CCCc2ccc([N+](=O)[O-])cc2)cc(=O)n(C)c1=O
> 46	Cl.O=C1NCC2(CCN(CCc3ccccc3)CC2)O1
> 46	CC[C@]12CCCN3CCc4c(n(c5ccccc45)[C@@](O)(C(=O)OC)C1)[C@@H]32
> 46	[H][C@]13[C@](O3)([H])[C@@H]2CC(OC(C(C4=CC=CS4)(C5=CC=CS5)O)=O)C[C@H]1[N@@+](C)2C.[Br-] (stereo partly specified)
> 46	Cl.O=C(OCC(O)CO)c1ccccc1Nc1ccnc2cc(Cl)ccc12 (stereo unspecified)
> 46	CCc1cccc(CC)c1NC(=O)CN(CC(=O)O)CC(=O)O
> 46	CCN1C(=O)NC(c2ccccc2)C1=O (stereo unspecified)
> 46	Cl.NC1CCN(c2cccc(Cl)n2)CC1
> 46	NS(=O)(=O)c1ccc(Cl)c(S(N)(=O)=O)c1
> 46	CCOC(=O)[N-]c1c[n+](N2CCOCC2)no1
> 46	O=C(NCCNCC(O)COc1ccc(O)cc1)N1CCOCC1 (stereo unspecified)
> 46	Cc1c(I)c(=O)n(-c2ccccc2)n1C
> 46	Cl.Nc1c2c(nc3c1CCC3)CCCC2.O
> 46	CCCCCc1ccc(C)cc1O
> 46	CC1(C)O[C@@H]2CC3C4C[C@H](F)C5=CC(=O)C=C[C@]5(C)C4[C@@H](O)C[C@]3(C)[C@]2(C(=O)CO)O1 (stereo partly specified)
> 46	OCC(O)CO
> 46	CCN1CCN(C(=O)N[C@@H](C(=O)N[C@@H]2C(=O)N3C(C(=O)[O-])=C(CSc4nnnn4C)CS[C@H]23)c2ccc(O)cc2)C(=O)C1=O.[Na+]
> 46	CC1CCC(NC(=O)N(CCCl)N=O)CC1 (stereo unspecified)
> 46	Cc1cc(-n2nc3ccc(Cl)cc3n2)c(O)c(C(C)(C)C)c1
> 46	Cl.N=C(N)NC(=N)NCCc1ccccc1
> 46	CN1CCC[C@@H]1Cc1c[nH]c2ccc(CCS(=O)(=O)c3ccccc3)cc12
> 46	CNCCC(Oc1ccccc1OC)c1ccccc1 (stereo unspecified)

IC50 [µM]	SMILES
> 46	COc1ccc(C(=O)c2ccc(C)cc2)c(O)c1
> 46	CC1=C[C@H](O)CC(C)(C)[C@H]1/C=C/C(C)=C/C=C/C(C)=C/C=C/C=C(C)/C=C/C=C(C)/C=C/C1=C(C)C[C@@H](O)CC1(C)C
> 46	CNc1c2c(nn1C)CCCC2
> 46	c13c(C(\C(=C/N1C2CC2)C(O)=O)=O)c(c(c(c3F)N4C[C@@H](N[C@@H](C4)C)C)F)N
> 46	Cc1nc2c([nH]1)c(=O)n(C)c(=O)n2Cc1ccco1
> 46	CCO[C@@H]1O[C@H](C(COCc2ccccc2)OCc2ccccc2)[C@H](OCc2ccccc2)[C@H]1O (stereo partly specified)
> 46	C=O
> 46	Cc1cc(C)cc(OCC2CNC(=O)O2)c1 (stereo unspecified)
> 46	CN(C)CCN1C(=O)c2ccccc2N(C)c2ccccc21.Cl
> 46	Nc1ncnc2c1ncn2[C@@H]1O[C@H](COP(=O)(O)OP(=O)(O)OP(=O)(O)O)[C@@H](O)[C@H]1O
> 46	COc1ccc(CN(CCN(C)C)c2ccccn2)cc1
> 46	F[C@]2([C@](C)3CC4)[C@@H](O)C[C@]([C@](C5)([H])[C@@]([H])2CCC3=CC4=O)(C)[C@@]1([C@](CCl)=O)[C@@H]5OC(C)(C)O1
> 46	Cn1c(=O)c2[nH]c(Br)nc2n(C)c1=O
> 46	O[C@](CN2N=CN=C2)([C@H]([C@@]3=C(F)C=NC=N3)C)C1=CC=C(F)C=C1F
> 46	CN1CCC(=C2c3ccccc3CCc3sccc32)CC1
> 46	COCCCOc1ccnc(CS(=O)c2nc3ccccc3[n-]2)c1C.[Na+] (stereo unspecified)
> 46	CC(O)[C@H]1CC[C@H]2[C@@H]3CC[C@@H]4C[C@@H](O)CC[C@]4(C)[C@H]3CC[C@]12C (stereo partly specified)
> 46	CC(C)(Oc1ccc(Cl)cc1)C(=O)O
> 46	CC(=O)OCC(CCn1cnc2cnc(N)nc21)COC(C)=O
> 46	NS(=O)(=O)c1cc(C2(O)NC(=O)c3ccccc32)ccc1Cl (stereo unspecified)
> 46	Cc1cccn2c(=O)c(-c3nnn[n-]3)cnc12.[K+]
> 46	COc1ccc2c(c1OC)C(=O)O[C@@H]2[C@H]1c2c(cc3c(c2OC)OCO3)CCN1C
> 46	CC(C)NCC(O)c1ccc(O)c(O)c1 (stereo unspecified)
> 46	NC(=O)NC1NC(=O)NC1=O (stereo unspecified)
> 46	CC(=O)NC(=O)c1ccccc1O

IC50 [µM]	SMILES
> 46	CC[C@H]1OC(=O)[C@H](C)C(=O)[C@H](C)[C@@H](O[C@@H]2O[C@H](C)C[C@H](N(C)C)[C@H]2O)[C@](C)(OC)C[C@@H](C)C(=O)[C@H](C)[C@H]2N(CCCCn3cnc(-c4cccnc4)c3)C(=O)O[C@]12C
> 46	CC(=O)Nc1ccc(OCCOCCOc2ccc(NC(C)=O)cc2)cc1
> 46	O=C(N[C@@H](CCCCN)C(N[C@@H](C(O)C)C(N[C@H](C(N[C@@H]([C@@H](O)C)C(N[C@@H](CO)C6=O)=O)=O)CC5=CC=CC=C5)=O)=O)[C@@H](NC([C@@H](NC([C@@H](NC([C@H](CC(N)=O)NC([C@H](CCCCN)NC([C@@H](NC(CNC([C@@H](N)C)=O)=O)CSSC[C@@H]([C@@](O)=O)N6)=O)=O)=O)CC4=CC=CC=C4)=O)CC3=CC=CC=C3)=O)CC1=CNC2=C1C=CC=C2 (stereo partly specified)
> 46	O=[C@](CO)[C@](CC2)(O)[C@](CC1)(C)[C@]2([H])[C@@](CC4)([H])[C@@]1([H])[C@](CC3)(C)C4=CC3=O
> 46	Cc1c(C(N)=O)cc([N+](=O)[O-])cc1[N+](=O)[O-]
> 46	CO
> 46	Cc1ccccc1N1C(=O)c2cc(S(N)(=O)=O)c(Cl)cc2NC1C (stereo unspecified)
> 46	COc1ccc(-c2cc(C(F)F)nn2-c2ccc(S(N)(=O)=O)cc2)cc1F
> 46	Cc1ccc(O)c(-n2nc3ccccc3n2)c1
> 46	O=C(CSC#N)O[C@H]2[C@]1(C)CC[C@H](C2)[C@](C)1C
> 46	Cc1cc(CC(=O)[O-])n(C)c1C(=O)c1ccc(Cl)cc1.[Na+]
> 46	C[C@]12CCC(=O)C[C@@H]1CC[C@@H]1[C@@H]2CC[C@]2(C)C=CC[C@@H]12
> 46	Cc1ccccc1OCC(O)CNCCOc1ccc(C(N)=O)cc1 (stereo unspecified)
> 46	CCNC(=O)NCc1cccc(Cl)c1
> 46	Oc1ccc(/C=C/c2cc(O)cc(O)c2)cc1
> 46	[NH2][Pt]([NH2])([Cl])[Cl]
> 46	CCC[C@@H]1C[C@@H](C(=O)N[C@@H]([C@H]2O[C@H](SC)[C@H](O)[C@@H](O)[C@H]2O)[C@H](C)Cl)N(C)C1.Cl
> 46	COc1ccccc1OCC(O)CO (stereo unspecified)
> 46	CCN(CC)C(=O)c1cccc(C)c1
> 46	O=S(=O)(O)NC1CCCCC1
> 46	CC(C)NCC(O)c1ccc2ccccc2c1 (stereo unspecified)
> 46	O=c1[nH]cnc2nc[nH]c12
> 46	Cc1c(C(C)C)c(=O)n(-c2ccccc2)n1C

SMILES	IC50 [µM]
COCC(=O)N(c1c(C)cccc1C)C(C)C(=O)OC (stereo unspecified)	> 46
C=C1CC[C@@]2(O)[C@H]3Cc4ccc(O)c5c4[C@@]2(CCN3CC2CC2)[C@H]1O5	> 46
Br.CC(Cc1ccc(O)cc1)NCC(O)c1cc(O)cc(O)c1 (stereo unspecified)	> 46
Cc1ccc(Cl)c(O)c1	> 46
O=c1ccc2cc(O[C@@H]3O[C@H](CO)[C@@H](O)[C@H](O)[C@H]3O)c(O)cc2o1	> 46
[O-][N+](=Nc1ccccc1)c1ccccc1	> 46
O=C(NC(O)C(Cl)(Cl)Cl)NC(O)C(Cl)(Cl)Cl (stereo unspecified)	> 46
CCN1C[C@]2(COC)[C@H](O)C[C@H](OC)[C@@]34[C@@H]5C[C@@]6(O)[C@H](OC(=O)c7ccccc7)[C@@H]5[C@@](OC(C)=O)([C@@H]([C@H](OC)[C@H]23)[C@H]14)[C@@H](O)[C@@H]6OC	> 46
O=C1CCO1	> 46
O=[C@](OCC2=COC(CC3=CC=CC=C3)=C2)[C@H]1C(C)(C)[C@@H]1\C=C(C)/C	> 46
CC1=C2[C@H]3OC(=O)[C@@H](C)[C@@H]3CC[C@@]2(C)C=CC1=O	> 46
Cc1ccc2c(c1)C1CN(C)CCC1N2 (stereo unspecified)	> 46
C#CCOC(C(=O)OCCN(C)C)(c1ccccc1)c1ccccc1.Cl	> 46
CNC(=O)Oc1ccc2c(c1)[C@]1(C)CCN(C)[C@@H]1N2C	> 46
O=C(O)/C=C\C(=O)O.c1ccc2nc(N3CCNCC3)ccc2c1	> 46
NCCCNCCSP(=O)(O)O	> 46
CCCCCCCCCC(CC)c1ccc(S(=O)(=O)[O-])cc1.[Na+] (stereo unspecified)	> 46
N=C(N)N1CCc2ccccc2C1.N=C(N)N1CCc2ccccc2C1.O=S(=O)(O)O	> 46
CCCN1CCC[C@H](c2cccc(O)c2)C1.Cl	> 46
NC(=O)CN1CCCC1=O	> 46
COc1cc(N)c(Cl)cc1C(=O)NC1CN2CCC1CC2.Cl (stereo unspecified)	> 46
Cc1ccc(S(=O)(=O)N[C@H](CCCCN)C(=O)CCl)cc1.Cl	> 46
C[C@H]1CCC[C@H](O)CCCCCc2cc(O)cc(O)c2C(=O)O1	> 46
O.O=P1(N(CCCl)CCCl)NCCCO1 (stereo unspecified)	> 46
O=C(CS(=O)C(c1ccccc1)c1ccccc1)NO (stereo unspecified)	> 46
COc1cc(N)c(Cl)cc1C(=O)NC1CCN(Cc2ccccc2)CC1.O=C(O)/C=C\C(=O)O	> 46
CCNC1(c2cccs2)CCCCC1=O.Cl (stereo unspecified)	> 46
C1CCc2nnnn2CC1	> 46
